Columns and labels:
Assay type in all cases: in vivo, human
[1] = Pharmacokinetics of single-agent oral reparixin in plasma
Protocol: Samples for pharmacokinetics (PK) were collected at selected sites in consenting patients. Venous blood samples (6 mL) were collected from a forearm vein at times 0.0, 0.25, 0.5, 1.0, 2.0, 4.0, 6.0, and 8.0 h following reparixin administration on days 1 and 21. The blood samples were immediately centrifuged at 4 °C, 1200 relative centrifugal force (RCF), for 10 min, and the plasma collected. Each plasma sample was divided into 2 aliquots and stored in 2 pre-labeled polypropylene screw-capped tubes (about 2 mL each) at − 20 °C until analysis. The analysis was performed at the Dompé Analytical Development Laboratories in L’Aquila, Italy.

[2] = test system: ALDH+ and CD24−/CD44+ CSC; test: CSC evaluation in core biopsy samples by flow cytometry
Protocol: Patients underwent core biopsies at baseline (day − 14 to 0) and at the completion of therapy (day 21). Three to five ≥ 18-gage needle biopsies were taken to measure the changes in CSC populations and pathway markers. If not performed at the completion of treatment, a core biopsy was taken on the day of surgery by the same technique. A sample of the surgically resected tumor tissue was also taken.
CSC populations (CD24^−/CD44^+ and ALDH^+) were measured by flow-cytometry of single-cell suspensions obtained from tumor biopsies (Additional file 1: Supplemental Materials) by using anti-human CD44-APC (clone G44-26) and CD24-FITC (clone ML5, RUO) antibodies (BD Biosciences, Franklin Lakes, NJ), and ALDEFLUOR assay (StemCell Technologies, Inc., Vancouver, BC, Canada), respectively, as previously published.
In the absence of reference data from the literature, signal of activity was defined as a ≥ 20% reduction in CSC (defined by either the ALDH^+− or CD24^−/CD44^+ phenotype) from baseline values as measured by flow cytometry, accompanied by a consistent reduction of the same cell population by IHC. The 20% cutoff was chosen considering only 1 21-day course of reparixin could be administered before surgery. Given the exploratory nature of the study to be conducted in a curable patient population, a sample of 40 patients divided into 2 subgroups of 20 patient each (i.e., ER+ and/or PgR+ and TNBC) was deemed adequate based upon simulations using the Wilson score method to obtain a lower limit for the probability of success. For each subgroup with this sample size, the study will have 80% power to detect a signal of activity (as defined above) observed in ≥ 70% patients as statistically significant at the 0.05 significance level.
To obtain single cell suspension, samples were weighed and observed for appearance, then placed in digestion media and kept at room temperature. The specimens were then rocked for 1 hour at 185 rpm (1.5 hours for surgical specimens), then filtered through 70 µm filter. HBSS+ was added to rinse any residual cells from filter, and the specimens were centrifuged 350xg for 5 minutes at 4 °C. For RBC lysis, cells were resuspended in sterile cell culture grade water, and after 20 seconds, 10XPBS was added. The specimens were then centrifuged at 350xg for 5 minutes at 4 °C. Supernatant was removed. The rest of the specimen was then filtered with 40 µm sterile cell strainer. Cell concentration was measured using Invitrogen Countess.

[3] = test system: CXCL8 and other cytokines; test: Serum cytokine levels (Milliplex/Luminex); conditions: day 1 vs day 21
Protocol: The concentrations of interleukin (IL)-1β, IL-6, CXCL8, tumor necrosis factor (TNF)-α, granulocyte macrophage colony stimulating factor (GM-CSF), vascular endothelial growth factor (VEGF), and basic fibroblast growth factor (b-FGF) were measured in sera obtained from patients on days 1 and 21 of the study.
In brief, serum cytokines levels were measured using a method, as previously published. Serum samples were processed and aliquoted within 24 hours for archiving at -80 °C. Samples were analyzed in batch using Milliplex bead kits (EMD Millipore Corporation, Billerica, MA) according to the manufacturer’s protocol with overnight incubations and an additional point added at the low end of the standard curve, and analyzed using a Luminex LX100 (Luminex Corporation, Austin, TX). BioPlex control and analysis software Version 5.0, (BioRad, Hercules, CA) was used.

[4] = Safety of oral reparixin in window-of-opportunity trial (TEAEs, ANC)
Description: In this single-arm, monotherapy trial (NCT01861054), female patients aged ≥ 18 years with HER-2-negative operable breast cancer (with a clinical diameter of ≥ 2 cm) that were not candidates for neoadjuvant therapy were recruited. The protocol was amended later to allow inclusion of patients with HER-2-negative operable breast cancer with a clinical diameter of > 1 cm, not eligible for neoadjuvant treatment. Patients needed to have previously untreated, histologically proven (per local investigator assessment) ER+ and/or PgR+ or ER−/PgR− breast cancer (i.e., triple-negative BC (TNBC)) with adequate organ function.
Patients were requested to take reparixin, an investigational orally available CXCR1/2 inhibitor, as two immediate-release 500-mg oral tablets every 6 to 8 h (every 8 h on the days of PK sampling) with food (a light meal or snack), for 21 consecutive days before surgery.
Descriptive statistics were used to summarize safety variables (i.e., adverse events, physical examination, vital signs, ECG, laboratory data, concomitant medications).

[5] = female, human, in vivo, po, 1000 mg

CC(C)Cc1ccc([C@@H](C)C(=O)NS(C)(=O)=O)cc1 [reparixin]
Tmax [1, 5]: 1 h
half-life [1, 5]: ~2 h
bioavailability following oral administration ([1]; human, in vivo, po): high bioavailability
systemic exposure (Cmax and AUClast), change from day 1 to day 21 ([1]; human, in vivo, po, 1000 mg): did not change
accumulation upon multiple dosing ([1]; oral 1000 mg t.i.d. for 21 days): no accumulation
patients with decrease in ALDH+ cells not accompanied by reduction of CD24−/CD44+ cells [2]: 2 patients
patients with decrease in CD24−/CD44+ CSC not paralleled by decrease in ALDH+ CSC [2]: 6 patients
patients without ALDH+ CSC at baseline in whom ALDH+ CSCs were detected at day 21 ([2]; core biopsy): 5/9
patients without CD24−/CD44+ CSC at baseline in whom CD24−/CD44+ CSCs were detected at day 21 ([2]; core biopsy): 6/6
other cytokines (IL-1β, IL-6, TNF-α, GM-CSF, VEGF, b-FGF), change [3]: No statistically significant changes
patients who experienced ≥ 1 TEAE related to the study drug ([4]; 1000 mg t.i.d. oral, 21 days): Ten of 20
TEAEs leading to discontinuation ([4]; 1000 mg t.i.d. oral, 21 days, 20 patients): no treatment-emergent adverse events (TEAEs) leading to discontinuation
delay of surgery due to study treatment ([4]; 20 patients): No patients had to delay surgery
serious adverse reactions ([4]; 20 patients): no serious adverse reactions
neutropenia / decrease in absolute neutrophil count (ANC) ([4]; ANC at weekly intervals, 10/20 patients): neither neutropenia of any grade nor any sustained decrease in ANC
grade of TEAEs related to the study drug ([4]; all related TEAEs): ≤ 2 grade
TEAE grade 1 fatigue ([4]; of 20 patients): 8 patients
TEAE nausea ([4]; of 20 patients): 5 patients
TEAE related to study drug: fatigue ([4]; of 20 patients): 4 patients
TEAE related to study drug: flatulence ([4]; of 20 patients): 2 patients
TEAE related to study drug: headache ([4]; of 20 patients): 2 patients
TEAE related to study drug: nausea ([4]; of 20 patients): 2 patients
serious TEAE ([4]; of 20 patients, unrelated to the study drug): 1 patient

— PMC6954543, “A window-of-opportunity trial of the CXCR1/2 inhibitor reparixin in operable HER-2-negative breast cancer” (Breast Cancer Research : BCR, 2020)
